Experiment [1] has as its target sigma 1 receptor (Homo sapiens, UniProt Q99720). Description: Target panel binding, sigma 1.
The target of experiment [2] is T1, 5-HT2C receptor (Homo sapiens, UniProt P28335).
T1 sequence (P28335 33-458): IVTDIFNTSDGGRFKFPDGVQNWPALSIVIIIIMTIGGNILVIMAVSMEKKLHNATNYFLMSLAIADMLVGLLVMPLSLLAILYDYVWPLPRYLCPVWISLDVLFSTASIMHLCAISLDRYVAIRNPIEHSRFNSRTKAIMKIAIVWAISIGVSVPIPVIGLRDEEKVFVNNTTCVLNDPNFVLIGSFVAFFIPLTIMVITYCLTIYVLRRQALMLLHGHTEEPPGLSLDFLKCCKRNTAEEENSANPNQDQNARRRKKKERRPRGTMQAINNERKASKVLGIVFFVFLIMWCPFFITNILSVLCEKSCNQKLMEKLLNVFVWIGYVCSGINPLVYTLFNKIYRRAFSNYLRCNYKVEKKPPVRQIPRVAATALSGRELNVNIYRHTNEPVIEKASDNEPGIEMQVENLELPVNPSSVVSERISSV
Description: Radioligand binding competition, 5-HT2C. To be noted: Ki.

Structures can show the parent of a compound that is named as a salt.

sigma 1 receptor, sequence (Q99720 whole entry, species assumed): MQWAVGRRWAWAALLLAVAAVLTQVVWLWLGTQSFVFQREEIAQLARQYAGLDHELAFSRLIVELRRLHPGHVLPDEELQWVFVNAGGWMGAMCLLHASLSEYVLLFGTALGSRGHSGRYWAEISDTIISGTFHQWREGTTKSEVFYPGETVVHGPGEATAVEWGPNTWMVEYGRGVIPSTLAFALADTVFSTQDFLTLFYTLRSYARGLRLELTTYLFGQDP

For `Cc1ccc2c(c1)c1c(n2CCc2ccccc2)CCN(C)C1` [AVN-101, 2,8-dimethyl-5-penethyl-2,3,4,5-tetra-hydro-1h-pyrido[[4,3-B]]indole hydrochloride], in experiment [1], the binding result is listed as “does not bind”. The inhibitory constant (Ki) in experiment [2] fell in the range of 1.2 to 2 nM.

The record behind these values is PMC4969713 (Journal of Alzheimer's Disease, 2016).
